Test results from PMC10114720.

Columns and labels:
[1] = PDMS sheets cleaned by Soxhlet with ethyl acetate; batch shaking method with a mixture of all chemicals at several PDMS-mass to water-volume ratios and spiked levels; vials shaken on an orbital shaker at room temperature in the dark, sampled at two equilibration times; PDMS extracts and water quantified by LC-HRMS (Orbitrap); D from the slope of C_PDMS on C_w or their ratio; value is the mean over that pH's experiments (individual experiments in the SI's concentrations table), sd is the table's stdev; conditions: PDMS (polydimethylsiloxane silicone sheet), phosphate buffer at three target pH values (the paper's methods)
[2] = monoprotic acid or base: log K of the neutral species extrapolated from the linear regression of D on the neutral fraction (from pKa and pH; the paper's eq. for monoprotic IOCs), the slope giving K of the neutral species; replicates column holds the table's 95% confidence limits. PDMS sheets cleaned by Soxhlet with ethyl acetate; batch shaking method with a mixture of all chemicals at several PDMS-mass to water-volume ratios and spiked levels; vials shaken on an orbital shaker at room temperature in the dark, sampled at two equilibration times; PDMS extracts and water quantified by LC-HRMS (Orbitrap); D from the slope of C_PDMS on C_w or their ratio; conditions: PDMS (polydimethylsiloxane silicone sheet); phosphate buffer at three target pH values (the paper's methods)

SMILES	log D PDMS/w (apparent distribution ratio at the stated pH) ([1]; pH 3)	log D PDMS/w (apparent distribution ratio at the stated pH) ([1]; pH 7.4)	log D PDMS/w (apparent distribution ratio at the stated pH) ([1]; pH 11.5)	log K PDMS/w (neutral species) [2]
NC(=O)N1c2ccccc2C(O)C(O)c2ccccc21 (stereo not shown)	-0.08 log units; D and K as the pape	-0.44 log units; D and K as the pape	-0.57 log units; D and K as the pape	0.07041 log units; D and K as the pape
CC(C)(Oc1ccc(CCNC(=O)c2ccc(Cl)cc2)cc1)C(=O)O	1.054 log units; D and K as the pape	-0.64 log units; D and K as the pape		1.311 log units; D and K as the pape
Clc1ccccc1C(c1ccccc1)(c1ccccc1)n1ccnc1	2.324 log units; D and K as the pape	4.388 log units; D and K as the pape	4.335 log units; D and K as the pape	4.471 log units; D and K as the pape
CCC1(c2ccccc2)C(=O)NCNC1=O	1.032 log units; D and K as the pape			1.057 log units; D and K as the pape
CCN(CC)c1ccc2c(C)cc(=O)oc2c1	2.535 log units; D and K as the pape	2.797 log units; D and K as the pape	2.809 log units; D and K as the pape	2.913 log units; D and K as the pape
NC(=O)/N=C1\SCCN1Cc1ccc(Cl)nc1	0.2411 log units; D and K as the pape	0.3692 log units; D and K as the pape	0.4142 log units; D and K as the pape	0.4822 log units; D and K as the pape
c1ccc2sc(NC3CCCCC3)nc2c1	2.092 log units; D and K as the pape	3.079 log units; D and K as the pape	3.04 log units; D and K as the pape	3.105 log units; D and K as the pape
CCOC(=O)NCCOc1ccc(Oc2ccccc2)cc1	3.077 log units; D and K as the pape	2.994 log units; D and K as the pape	2.967 log units; D and K as the pape	3.121 log units; D and K as the pape
CC(C)C(=O)Nc1ccc([N+](=O)[O-])c(C(F)(F)F)c1	1.476 log units; D and K as the pape	1.423 log units; D and K as the pape		1.525 log units; D and K as the pape
CNC(=O)Oc1cccc2ccccc12				1.106 log units; D and K as the pape
Clc1ccc(COC(Cn2ccnc2)c2ccc(Cl)cc2Cl)c(Cl)c1 (stereo not shown)	2.616 log units; D and K as the pape	4.581 log units; D and K as the pape	4.53 log units; D and K as the pape	4.599 log units; D and K as the pape
CCCCc1nc(Cl)c(CO)n1Cc1ccc(-c2ccccc2-c2nn[nH]n2)cc1	0.8893 log units; D and K as the pape	-0.01 log units; D and K as the pape	-0.67 log units; D and K as the pape	1.068 log units; D and K as the pape
Cc1ccc2[nH]nnc2c1	0.336 log units; D and K as the pape	0.308 log units; D and K as the pape	-0.64 log units; D and K as the pape	0.3619 log units; D and K as the pape
Nc1nc2ccccc2[nH]1		-0.58 log units; D and K as the pape	-0.51 log units; D and K as the pape	
CO/C=C(/C(=O)O)c1ccccc1Oc1cc(Oc2ccccc2C#N)ncn1	1.162 log units; D and K as the pape	-0.4633 log units; D and K as the pape	-0.695 log units; D and K as the pape	1.355 log units; D and K as the pape
COCCc1ccc(OCC(O)CNC(C)C)cc1 (stereo not shown)	0.28 log units; D and K as the pape	-0.003333 log units; D and K as the pape		
CC(CCc1ccccc1)NCC(O)c1ccc(O)c(C(N)=O)c1 (stereo not shown)	-0.855 log units; D and K as the pape	-0.2383 log units; D and K as the pape		

SMILES	log D PDMS/w (apparent distribution ratio at the stated pH) ([1]; pH 3)	log D PDMS/w (apparent distribution ratio at the stated pH) ([1]; pH 7.4)	log D PDMS/w (apparent distribution ratio at the stated pH) ([1]; pH 11.5)	log K PDMS/w (neutral species) [2]
CCOC(=O)c1ccc(N(C)C)cc1	2.216 log units; D and K as the pape	2.266 log units; D and K as the pape	2.184 log units; D and K as the pape	2.315 log units; D and K as the pape
CC(C)(C)c1ccc(S(N)(=O)=O)cc1	1.11 log units; D and K as the pape	1.067 log units; D and K as the pape	1.073 log units; D and K as the pape	1.285 log units; D and K as the pape
NC12CC3CC(CC(C3)C1)C2				2.916 log units; D and K as the pape
CC(C)(c1cc(Br)c(O)c(Br)c1)c1cc(Br)c(O)c(Br)c1	4.46 log units; D and K as the pape	2.944 log units; D and K as the pape		
CCNS(=O)(=O)c1ccccc1C	0.51 log units; D and K as the pape	0.4188 log units; D and K as the pape	0.4886 log units; D and K as the pape	0.5936 log units; D and K as the pape
c1ccc2[nH]nnc2c1	0.055 log units; D and K as the pape	0.06625 log units; D and K as the pape		0.1268 log units; D and K as the pape
N[C@@H](Cc1cc(I)c(Oc2cc(I)c(O)c(I)c2)c(I)c1)C(=O)O	0.632 log units; D and K as the pape	0.2933 log units; D and K as the pape		
c1ccc2[nH]c(-c3cscn3)nc2c1	0.5417 log units; D and K as the pape	1.69 log units; D and K as the pape	1.693 log units; D and K as the pape	1.855 log units; D and K as the pape
O=c1c2ccccc2[nH]c2ccccc12	1.351 log units; D and K as the pape	1.251 log units; D and K as the pape	1.334 log units; D and K as the pape	1.406 log units; D and K as the pape
CCOC(=O)CC(O)(CC(=O)OCC)C(=O)OCC	1.101 log units; D and K as the pape	1.143 log units; D and K as the pape		0.9455 log units; D and K as the pape
O=C(O)Cc1ccccc1Nc1c(Cl)cccc1Cl				1.867 log units; D and K as the pape
Oc1c(Br)cc(Cl)cc1Cc1cc(Cl)cc(Br)c1O	3.724 log units; D and K as the pape	2.256 log units; D and K as the pape	0.555 log units; D and K as the pape	
COC(=O)Nc1nc2ccc(C(=O)c3ccccc3)cc2[nH]1	1.465 log units; D and K as the pape	1.732 log units; D and K as the pape	1.506 log units; D and K as the pape	
CCc1ccc(CCOc2ccc(CC3SC(=O)NC3=O)cc2)nc1 (stereo not shown)	0.7792 log units; D and K as the pape	2.087 log units; D and K as the pape	-0.02556 log units; D and K as the pape	
O=C(Nc1ccc(Cl)c(Cl)c1)c1cc(Cl)cc(Cl)c1O				3.883 log units; D and K as the pape
CCc1cccc(C)c1N(C(=O)C(=O)O)C(C)C(=O)O (stereo not shown)	1.878 log units; D and K as the pape	3.06 log units; D and K as the pape	3.008 log units; D and K as the pape	
